According to patent US6982285B2, “Control of parasites attached to skin of fish” (Novartis Animal Health US, Inc., priority 1999, dated 2006):

Tests used:
[1] = tested on: sea lice; conditions: in salt water (printed for trichlorfon); cited from earlier work
[2] = tested on: salmon louse; assay: Semi-automated in vivo test for activity against the salmon louse (needleless inoculation gun); set-up: species or system salmon louse on Atlantic salmon; conditions: Atlantic salmon artificially infected with 5 pre-adult, 5 adult female and 5 adult male salmon lice; 45 mg fluazuron/kg body weight, needleless inoculation gun below dorsal fin; after 24 hours
Excerpt: 2. Semi-Automated In Vivo Test for Activity Against the Salmon Louse.
Two well-aerated seawater aquariums, each of 5000 liter content, are set up parallel to one another at a distance of 2 m, with one being 10 cm higher than the other. The upper aquarium is provided with a kind of overflow which opens into a plexiglass channel which is open at the top and has a square inner cross-section of 10 cm. The upper end of this channel is secured by a movable grid and rests on the edge of the lower aquarium. Between the two aquariums, there is slight gradient. In the middle of the channel, two wire grids are attached with a 30 cm gap across the current, in such a way that they are either used as a water-permeable barrier or can be opened upwards on a hinge by a lever. At the bottom of the upper aquarium, there is an electrically controlled tail lift. When this is raised, the volume of water above it is diminished by reducing the depth of water. In addition, the upper aquarium contains a water feed which is secured by a grid and the lower aquarium has outlet holes. Water flows constantly from the upper to the lower aquarium. 200 Atlantic salmon of the same age are introduced into the upper aquarium and are each artificially infected with 5 pre-adult, 5 adult female and 5 adult male salmon lice. […]

[3] = tested on: salmon louse; assay: In vivo preliminary test for activity against the salmon louse following manual injection; set-up: species or system salmon louse on Atlantic salmon; conditions: naturally infected Atlantic salmon; single dose 40 mg fluazuron/kg body weight injected by hand into muscle tissue below dorsal fin; inspected 24, 48 and 72 hours later; at latest after 72 hours
Experimental: 1. In Vivo Preliminary Test for Activity Against the Salmon Louse Following Manual […]
20 naturally infected Atlantic salmon of various sizes from a fish farm are transferred to a well-aerated seawater aquarium for acclimatisation. They are left there for 3 days and fed daily with the usual food. On the fourth day, they are caught individually with a fish basket and quickly weighed. Each fish is injected by hand using an injection needle with a single dose, according to formulation example 1, of 40 mg fluazuron/kg body weight into the muscle tissue below the dorsal fin. The treated fish are returned to their aquarium.

| SMILES | concentration required / effective against sea lice [1] [ppm] | parasite infestation / number of surviving parasites [2] | parasite infestation / number of surviving parasites [3] |
| --- | --- | --- | --- |
| COP(=O)(OC)OC=C(Cl)Cl [dichlorvos, 2,2-dichloroethenyl-dimethylphosphate] | ≥ 1 |  |  |
| O=C(NC(=O)c1c(F)cccc1F)Nc1ccc(Cl)c(Oc2ncc(C(F)(F)F)cc2Cl)c1 [fluazuron, 1-[4-chloro-3-(3-chloro-5-trifluoromethyl-2-pyridyloxy)phenyl]-3-(2,6-difluorobenzoyl)urea] |  | all the female and male adults and pre-adult stages have been killed | all the adult and pre-adult stages have been killed |
| COP(=O)(OC)C(O)C(Cl)(Cl)Cl (stereo not shown) [trichlorfon, dimethyl-2,2,2-trichloro-1-hydroxyethyl-phosphonate] | 300 |  |  |
